This is an account of results in patent publication US20250352514A1, “SALT FORMS OF BIS(3-(2-(DIMETHYLAMINO)ETHYL)-1 H-INDOL-4-YL) 3,3'¬OXYDIPROPIONATE” (priority 2024, published 2025).

The data set can be described thus: Initial polymorphism assessment by slurrying in 12 solvents at room temperature, XRPD. It is filed as physicochemical. As to conditions: shaken at room temperature 3-4 days. The text has this: The vials were capped, sealed with Parafilm®, and then covered with foil. The experiments were shaken at room temperature for 4 days. After 4 days all the experiments had remained as slurries apart from the experiment in water. Portions of solid were removed from each one and analyzed by XRPD.
The vials were capped, sealed with Parafilm® and then covered with foil. The experiments were shaken at room temperature for 3 days. After 3 days all the experiments had remained as slurries. Portions were removed from each one and analyzed by XRPD.

Take `CN(C)CCc1c[nH]c2cccc(OC(=O)CCOCCC(=O)Oc3cccc4[nH]cc(CCN(C)C)c34)c12`: the “XRPD patterns after slurrying in 12 solvents compared with input material” value is reported as “XRPD patterns consistent with the XRPD pattern of the input material”.
